From ChEMBL document CHEMBL1806431, “Imidazo[1,2-a]pyridin-3-amines as potential HIV-1 non-nucleoside reverse transcriptase inhibitors” (Bioorg Med Chem, 2011)
Values belong to the compound of their own block, whether it stands above or below them.

What was measured:
[1] = target: Human immunodeficiency virus type 1 reverse transcriptase (Human immunodeficiency virus 1, UniProt Q72547); assay: Inhibition of HIV1 reverse transcriptase assessed as residual enzyme activity at 50 uM after 1 hr by ELISA
[2] = test system: Human immunodeficiency virus 1; assay: microbe, parasite or virus in culture; assay type: functional, organism-based; details: Human immunodeficiency virus 1, 3B, MAGI-CCR5, 48 h
[3] = Cytotoxicity against human MAGI-CCR5 cells after 48 hrs by MTS cell viability assay
[4] = Selectivity index, ratio of CC50 for MAGI-CCR5 cells to IC50 for HIV13B infected in human MAGI-CCR5 cells; assay type: functional
[5] = Permeability of the compound at 100 uM after 5 hrs by PAMPA

IC50 [1]: 6.6 µM
IC50 [2]: < 630 nM
permeability [5]: permeable
Compound: N#Cc1ccc2nc(-c3ccccc3Cl)c(NC3CCCCC3)n2c1
CC50 at 48 h [3]: 140 µM
Ratio CC50/IC50 [4]: >222

IC50 [1]: 11.3 µM
IC50 [2]: 1880 nM
Compound: Fc1ccc2nc(-c3ccccc3Cl)c(NC3CCCCC3)n2c1
CC50 at 48 h [3]: 160 µM
Ratio CC50/IC50 [4]: 85

IC50 [1]: 14.5 µM
IC50 [2]: 840 nM
permeability [5]: permeable
Compound: Clc1ccc2nc(-c3ccccc3Cl)c(NC3CCCCC3)n2c1
CC50 at 48 h [3]: > 200 µM
Ratio CC50/IC50 [4]: >238

IC50 [1]: 12.2 µM
IC50 [2]: 2190 nM
Compound: Clc1ccccc1-c1nc2ccc(Br)cn2c1NC1CCCCC1
CC50 at 48 h [3]: > 200 µM
Ratio CC50/IC50 [4]: >91

IC50 [1]: 5.39 µM
IC50 [2]: 640 nM
permeability [5]: permeable
Compound: Cc1ccc2nc(-c3ccccc3Cl)c(NC3CCCCC3)n2c1
CC50 at 48 h [3]: 57.4 µM
Ratio CC50/IC50 [4]: 90

Second part, the compound before the results:

Compound: Clc1ccccc1-c1nc2ccc3ccccc3n2c1NC1CCCCC1
IC50 [1]: 7.52 µM
IC50 [2]: 600 nM
CC50 at 48 h [3]: 146 µM
Ratio CC50/IC50 [4]: 243
permeability [5]: permeable

Compound: CC(C)NCC(O)COc1cccc2[nH]ccc12 (stereo not given) [PINDOLOL]
permeability [5]: permeable

Compound: Clc1ccccc1-c1nc2ccccn2c1NC1CCCCC1
IC50 [1]: 4.4 µM
IC50 [2]: 410 nM
CC50 at 48 h [3]: 60.4 µM
Ratio CC50/IC50 [4]: 147
permeability [5]: permeable

Compound: Cc1ccn2c(NC3CCCCC3)c(-c3ccccc3Cl)nc2c1
permeability [5]: permeable

Compound: Clc1ccccc1-c1nc2cccc(Cl)n2c1NC1CCCCC1
IC50 [1]: 3.74 µM
IC50 [2]: 240 nM
CC50 at 48 h [3]: 152 µM
Ratio CC50/IC50 [4]: 633
permeability [5]: permeable

Compound: Cc1c(Br)ccc2nc(-c3ccccc3Cl)c(NC3CCCCC3)n12
IC50 [1]: 18.9 µM
IC50 [2]: 73000 nM
CC50 at 48 h [3]: > 200 µM
Ratio CC50/IC50 [4]: >3

Compound: Cc1cccc2nc(-c3ccccc3Cl)c(NC3CCCCC3)n12
IC50 [1]: 1.55 µM
IC50 [2]: 190 nM
CC50 at 48 h [3]: 20.5 µM
Ratio CC50/IC50 [4]: 108

Compound: COCCc1ccc(OCC(O)CNC(C)C)cc1 (stereo not given) [METOPROLOL]
permeability [5]: permeable

Compound: N#Cc1cccc2nc(-c3ccccc3Cl)c(NC3CCCCC3)n12
IC50 [1]: 3.47 µM
IC50 [2]: 180 nM
CC50 at 48 h [3]: 156 µM
Ratio CC50/IC50 [4]: 868
permeability [5]: permeable

Compound: Clc1ccccc1-c1nc2cccc(Br)n2c1NC1CCCCC1
IC50 [1]: 4.62 µM
IC50 [2]: 3150 nM
CC50 at 48 h [3]: > 200 µM
Ratio CC50/IC50 [4]: 64

Compound: Cc1ccnc2c1NC(=O)c1cccnc1N2C1CC1 [NEVIRAPINE]
IC50 [2]: 90 nM
CC50 at 48 h [3]: > 10 µM
